What was measured:
Test in all cases: RBC kinase panel
Format in all cases: biochemical
Details in all cases: ATP 10 μM, Data1, Data2
ALK5/TGFBR1 = molecular target: T1, ALK5/TGFBR1 (Homo sapiens, UniProt P36897)
T1 construct: purchased Reaction Biology Corporation
Summary of the method: (§1)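 In this selectivity screen, one compound concentration (1 μM) was applied to 369 human kinases, with duplicates and 10 μM ATP in each reaction.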

BTK = molecular target: T2, BTK (Homo sapiens, UniProt Q06187)
T2 construct: purchased Reaction Biology Corporation
Summary of the method: as §1

CAMK2g = molecular target: T3, CAMK2g (Homo sapiens, UniProt Q13555)
T3 construct: purchased Reaction Biology Corporation
Summary of the method: as §1

CAMK4 = molecular target: T4, CAMK4 (Homo sapiens, UniProt Q16566)
T4 construct: purchased Reaction Biology Corporation
Summary of the method: as §1

CDK17/cyclin Y (PCTK2) = molecular target: T5, CDK17/cyclin Y (PCTK2) (Homo sapiens, UniProt Q00537)
T5 construct: purchased Reaction Biology Corporation
Summary of the method: as §1

CK1g3 = molecular target: T6, CK1g3 (Homo sapiens, UniProt Q9Y6M4)
T6 construct: purchased Reaction Biology Corporation
Summary of the method: as §1

CK2a2 = molecular target: T7, CK2a2 (Homo sapiens, UniProt P19784)
T7 construct: purchased Reaction Biology Corporation
Summary of the method: as §1

CLK2 = molecular target: T8, CLK2 (Homo sapiens, UniProt P49760)
T8 construct: purchased Reaction Biology Corporation
Summary of the method: as §1

CLK4 = molecular target: T9, CLK4 (Homo sapiens, UniProt Q9HAZ1)
T9 construct: purchased Reaction Biology Corporation
Summary of the method: as §1

DAPK1 = molecular target: T10, DAPK1 (Homo sapiens, UniProt P53355)
T10 construct: purchased Reaction Biology Corporation
T10 sequence (P53355 whole entry): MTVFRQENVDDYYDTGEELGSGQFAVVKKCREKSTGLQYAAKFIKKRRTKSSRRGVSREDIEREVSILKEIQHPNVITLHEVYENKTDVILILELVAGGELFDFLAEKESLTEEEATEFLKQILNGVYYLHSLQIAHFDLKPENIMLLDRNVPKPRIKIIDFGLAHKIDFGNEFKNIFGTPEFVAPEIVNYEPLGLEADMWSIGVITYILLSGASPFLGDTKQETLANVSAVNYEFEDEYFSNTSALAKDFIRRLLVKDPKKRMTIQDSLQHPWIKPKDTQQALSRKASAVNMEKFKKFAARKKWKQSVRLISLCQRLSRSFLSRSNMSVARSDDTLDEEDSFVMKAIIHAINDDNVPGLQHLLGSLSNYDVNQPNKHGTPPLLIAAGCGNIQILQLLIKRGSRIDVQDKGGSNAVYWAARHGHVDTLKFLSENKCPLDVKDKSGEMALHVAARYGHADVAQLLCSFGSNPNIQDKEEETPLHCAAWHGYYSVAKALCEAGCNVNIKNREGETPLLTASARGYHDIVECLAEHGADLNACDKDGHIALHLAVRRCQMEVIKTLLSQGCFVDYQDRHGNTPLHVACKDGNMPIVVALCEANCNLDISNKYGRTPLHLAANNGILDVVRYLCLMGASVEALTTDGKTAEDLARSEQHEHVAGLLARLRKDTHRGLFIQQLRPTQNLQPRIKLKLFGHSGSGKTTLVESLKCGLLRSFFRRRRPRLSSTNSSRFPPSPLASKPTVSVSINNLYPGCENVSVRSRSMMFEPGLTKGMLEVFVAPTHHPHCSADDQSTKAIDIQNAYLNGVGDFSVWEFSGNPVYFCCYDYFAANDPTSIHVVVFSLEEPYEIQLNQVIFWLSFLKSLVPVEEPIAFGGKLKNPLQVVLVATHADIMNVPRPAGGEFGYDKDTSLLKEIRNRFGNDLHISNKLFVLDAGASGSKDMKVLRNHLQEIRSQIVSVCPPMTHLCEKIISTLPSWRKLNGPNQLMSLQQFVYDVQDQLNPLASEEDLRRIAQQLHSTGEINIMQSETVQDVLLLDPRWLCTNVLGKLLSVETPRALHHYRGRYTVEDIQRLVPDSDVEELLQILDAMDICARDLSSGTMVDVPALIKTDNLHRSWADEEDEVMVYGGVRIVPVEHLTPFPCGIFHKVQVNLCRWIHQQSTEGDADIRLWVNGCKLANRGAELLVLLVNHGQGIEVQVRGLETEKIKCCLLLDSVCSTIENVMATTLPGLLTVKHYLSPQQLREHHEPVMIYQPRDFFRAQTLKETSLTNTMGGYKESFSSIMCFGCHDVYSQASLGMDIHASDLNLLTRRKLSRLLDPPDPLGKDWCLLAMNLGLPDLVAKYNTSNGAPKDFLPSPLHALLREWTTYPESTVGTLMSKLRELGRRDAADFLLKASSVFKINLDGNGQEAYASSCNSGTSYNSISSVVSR
Summary of the method: as §1

DMPK = molecular target: T11, DMPK (Homo sapiens, UniProt Q09013)
T11 construct: purchased Reaction Biology Corporation
T11 sequence (Q09013 whole entry): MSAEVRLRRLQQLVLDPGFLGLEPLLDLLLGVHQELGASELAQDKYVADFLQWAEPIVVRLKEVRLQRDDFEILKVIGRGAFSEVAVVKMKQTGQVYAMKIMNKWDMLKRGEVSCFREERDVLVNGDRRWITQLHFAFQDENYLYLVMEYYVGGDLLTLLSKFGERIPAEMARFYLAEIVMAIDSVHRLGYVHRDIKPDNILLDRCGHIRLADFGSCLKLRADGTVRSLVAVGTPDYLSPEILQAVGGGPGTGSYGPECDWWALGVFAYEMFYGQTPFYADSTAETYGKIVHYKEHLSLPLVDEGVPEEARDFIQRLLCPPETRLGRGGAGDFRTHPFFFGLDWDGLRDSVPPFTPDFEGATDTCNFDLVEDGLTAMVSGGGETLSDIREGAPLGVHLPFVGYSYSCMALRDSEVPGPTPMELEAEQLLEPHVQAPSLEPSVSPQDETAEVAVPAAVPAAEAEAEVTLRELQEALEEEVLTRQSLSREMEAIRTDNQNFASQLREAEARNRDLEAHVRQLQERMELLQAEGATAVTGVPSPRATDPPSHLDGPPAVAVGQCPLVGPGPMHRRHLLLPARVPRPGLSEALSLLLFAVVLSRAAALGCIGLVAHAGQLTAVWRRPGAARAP
Summary of the method: as §1

ERK7/MAPK15 = molecular target: T12, ERK7/MAPK15 (Homo sapiens, UniProt Q8TD08)
T12 construct: purchased Reaction Biology Corporation
Summary of the method: as §1

FLT1/VEGFR1 = molecular target: T13, FLT1/VEGFR1 (Homo sapiens, UniProt P17948)
T13 construct: purchased Reaction Biology Corporation
T13 sequence (P17948 27-1338): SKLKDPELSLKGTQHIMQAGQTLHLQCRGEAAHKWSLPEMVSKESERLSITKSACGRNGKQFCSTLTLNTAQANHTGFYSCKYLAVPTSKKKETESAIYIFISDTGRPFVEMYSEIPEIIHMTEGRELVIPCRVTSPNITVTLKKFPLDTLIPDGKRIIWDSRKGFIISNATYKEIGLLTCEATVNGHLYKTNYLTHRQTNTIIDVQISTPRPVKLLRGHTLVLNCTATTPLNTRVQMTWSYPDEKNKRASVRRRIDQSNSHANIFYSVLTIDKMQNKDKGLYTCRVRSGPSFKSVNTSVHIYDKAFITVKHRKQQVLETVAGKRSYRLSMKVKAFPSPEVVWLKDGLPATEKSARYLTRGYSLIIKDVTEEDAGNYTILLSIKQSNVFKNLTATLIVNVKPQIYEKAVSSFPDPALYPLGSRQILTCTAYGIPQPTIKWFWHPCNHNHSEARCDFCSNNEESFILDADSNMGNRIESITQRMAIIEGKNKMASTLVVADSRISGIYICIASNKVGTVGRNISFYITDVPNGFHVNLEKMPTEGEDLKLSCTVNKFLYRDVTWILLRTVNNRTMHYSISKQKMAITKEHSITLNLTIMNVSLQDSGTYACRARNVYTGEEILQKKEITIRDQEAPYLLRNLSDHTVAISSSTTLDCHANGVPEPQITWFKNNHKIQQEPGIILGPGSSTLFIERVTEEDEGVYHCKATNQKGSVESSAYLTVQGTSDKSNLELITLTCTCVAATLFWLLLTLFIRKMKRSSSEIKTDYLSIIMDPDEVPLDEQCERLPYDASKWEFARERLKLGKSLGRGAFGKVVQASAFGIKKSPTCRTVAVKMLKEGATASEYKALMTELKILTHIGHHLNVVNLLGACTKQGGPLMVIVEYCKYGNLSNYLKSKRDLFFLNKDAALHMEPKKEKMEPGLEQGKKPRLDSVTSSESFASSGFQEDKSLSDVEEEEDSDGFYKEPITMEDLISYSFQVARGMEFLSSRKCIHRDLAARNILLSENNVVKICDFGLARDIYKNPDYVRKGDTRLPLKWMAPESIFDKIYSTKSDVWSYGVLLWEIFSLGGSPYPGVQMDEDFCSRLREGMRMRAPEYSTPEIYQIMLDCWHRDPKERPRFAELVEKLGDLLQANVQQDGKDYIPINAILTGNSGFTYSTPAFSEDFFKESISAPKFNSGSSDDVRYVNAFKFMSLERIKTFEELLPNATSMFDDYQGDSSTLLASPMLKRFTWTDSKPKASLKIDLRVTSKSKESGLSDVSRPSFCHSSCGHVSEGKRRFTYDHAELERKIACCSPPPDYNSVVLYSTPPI
Summary of the method: as §1

Haspin = molecular target: T14, Haspin (Homo sapiens, UniProt Q8TF76)
T14 construct: purchased Reaction Biology Corporation
Summary of the method: as §1

IRR/INSRR = molecular target: T15, IRR/INSRR (Homo sapiens, UniProt P14616)
T15 construct: purchased Reaction Biology Corporation
Summary of the method: as §1

KSR2 = molecular target: T16, KSR2 (Homo sapiens, UniProt Q6VAB6)
T16 construct: purchased Reaction Biology Corporation
Summary of the method: as §1

MINK/MINK1 = molecular target: T17, MINK/MINK1 (Homo sapiens, UniProt Q8N4C8)
T17 construct: purchased Reaction Biology Corporation
Summary of the method: as §1

MYLK4 = molecular target: T18, MYLK4 (Homo sapiens, UniProt Q86YV6)
T18 construct: purchased Reaction Biology Corporation
Summary of the method: as §1

NEK11 = molecular target: T19, NEK11 (Homo sapiens, UniProt Q8NG66)
T19 construct: purchased Reaction Biology Corporation
Summary of the method: as §1

NLK = molecular target: T20, NLK (Homo sapiens, UniProt Q9UBE8)
T20 construct: purchased Reaction Biology Corporation
Summary of the method: as §1

P38d/MAPK13 = molecular target: T21, P38d/MAPK13 (Homo sapiens, UniProt O15264)
T21 construct: purchased Reaction Biology Corporation
Summary of the method: as §1

PAK3 = molecular target: T22, PAK3 (Homo sapiens, UniProt O75914)
T22 construct: purchased Reaction Biology Corporation
Summary of the method: as §1

PKCg = molecular target: T23, PKCg (Homo sapiens, UniProt P05129)
T23 construct: purchased Reaction Biology Corporation
Summary of the method: as §1

PKN1/PRK1 = molecular target: T24, PKN1/PRK1 (Homo sapiens, UniProt Q16512)
T24 construct: purchased Reaction Biology Corporation
Summary of the method: as §1

PLK3 = molecular target: T25, PLK3 (Homo sapiens, UniProt Q9H4B4)
T25 construct: purchased Reaction Biology Corporation
Summary of the method: as §1

SGK3/SGKL = molecular target: T26, SGK3/SGKL (Homo sapiens, UniProt Q96BR1)
T26 construct: purchased Reaction Biology Corporation
Summary of the method: as §1

SIK1 = molecular target: T27, SIK1 (Homo sapiens, UniProt P57059)
T27 construct: purchased Reaction Biology Corporation
T27 sequence (P57059 whole entry): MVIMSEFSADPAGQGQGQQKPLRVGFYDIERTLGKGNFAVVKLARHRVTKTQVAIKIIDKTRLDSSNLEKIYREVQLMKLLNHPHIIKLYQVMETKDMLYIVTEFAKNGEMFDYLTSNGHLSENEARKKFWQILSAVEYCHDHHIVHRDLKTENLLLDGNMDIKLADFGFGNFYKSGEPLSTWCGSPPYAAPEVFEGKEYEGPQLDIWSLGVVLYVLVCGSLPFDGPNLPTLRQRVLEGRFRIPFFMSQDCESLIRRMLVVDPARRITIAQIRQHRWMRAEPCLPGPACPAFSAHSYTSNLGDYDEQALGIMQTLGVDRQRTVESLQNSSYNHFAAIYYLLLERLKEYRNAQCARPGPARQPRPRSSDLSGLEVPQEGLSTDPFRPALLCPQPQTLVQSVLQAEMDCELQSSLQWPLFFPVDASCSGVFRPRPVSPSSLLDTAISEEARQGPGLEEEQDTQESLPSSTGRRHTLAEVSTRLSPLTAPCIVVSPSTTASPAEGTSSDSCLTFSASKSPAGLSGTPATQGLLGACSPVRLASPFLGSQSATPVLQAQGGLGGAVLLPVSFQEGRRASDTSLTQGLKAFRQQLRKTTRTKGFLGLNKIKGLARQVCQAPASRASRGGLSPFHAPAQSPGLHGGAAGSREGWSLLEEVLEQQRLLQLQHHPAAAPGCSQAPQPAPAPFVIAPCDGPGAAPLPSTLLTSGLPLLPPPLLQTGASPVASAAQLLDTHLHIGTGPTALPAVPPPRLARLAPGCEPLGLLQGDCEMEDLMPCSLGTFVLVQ
Summary of the method: as §1

STK22D/TSSK1 = molecular target: T28, STK22D/TSSK1 (Homo sapiens, UniProt Q9BXA7)
T28 construct: purchased Reaction Biology Corporation
Summary of the method: as §1

TAK1 = molecular target: T29, TAK1 (Homo sapiens, UniProt O43318)
T29 construct: purchased Reaction Biology Corporation
T29 sequence (O43318 1-303 limits assumed): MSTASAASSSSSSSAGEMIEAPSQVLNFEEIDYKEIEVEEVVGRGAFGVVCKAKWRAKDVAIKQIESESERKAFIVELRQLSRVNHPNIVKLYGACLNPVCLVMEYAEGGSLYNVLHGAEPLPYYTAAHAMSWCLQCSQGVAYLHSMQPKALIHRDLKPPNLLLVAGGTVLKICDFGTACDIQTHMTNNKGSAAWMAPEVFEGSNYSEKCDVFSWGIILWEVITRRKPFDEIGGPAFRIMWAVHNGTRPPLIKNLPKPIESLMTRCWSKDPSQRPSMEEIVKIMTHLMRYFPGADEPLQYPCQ
T29 sequence (Q15750 437-504 partner limits assumed): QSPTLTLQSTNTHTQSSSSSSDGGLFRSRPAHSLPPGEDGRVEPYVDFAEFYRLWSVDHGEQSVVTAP
Summary of the method: as §1

TGFBR2 = molecular target: T30, TGFBR2 (Homo sapiens, UniProt P37173)
T30 construct: purchased Reaction Biology Corporation
T30 sequence (P37173 23-567): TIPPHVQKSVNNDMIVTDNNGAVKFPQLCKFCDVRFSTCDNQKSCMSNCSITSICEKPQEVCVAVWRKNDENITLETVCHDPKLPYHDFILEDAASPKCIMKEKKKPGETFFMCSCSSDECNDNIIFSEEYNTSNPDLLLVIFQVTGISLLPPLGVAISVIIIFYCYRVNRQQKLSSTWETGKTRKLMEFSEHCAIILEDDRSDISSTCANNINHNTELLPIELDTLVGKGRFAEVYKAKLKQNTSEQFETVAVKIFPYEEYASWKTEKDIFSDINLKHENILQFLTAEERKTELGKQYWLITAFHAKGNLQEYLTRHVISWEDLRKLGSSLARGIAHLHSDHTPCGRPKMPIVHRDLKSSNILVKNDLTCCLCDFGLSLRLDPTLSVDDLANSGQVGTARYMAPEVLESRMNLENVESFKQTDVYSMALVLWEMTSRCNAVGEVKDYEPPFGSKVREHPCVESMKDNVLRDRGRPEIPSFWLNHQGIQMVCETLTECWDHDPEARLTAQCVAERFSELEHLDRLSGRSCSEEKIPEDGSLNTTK
Summary of the method: as §1

TTBK1 = molecular target: T31, TTBK1 (Homo sapiens, UniProt Q5TCY1)
T31 construct: purchased Reaction Biology Corporation
Summary of the method: as §1

c-Src = molecular target: T32, c-Src (Homo sapiens, UniProt P12931)
T32 construct: purchased Reaction Biology Corporation
Summary of the method: as §1

p70S6K/RPS6KB1 = molecular target: T33, p70S6K/RPS6KB1 (Homo sapiens, UniProt P23443)
T33 construct: purchased Reaction Biology Corporation
Summary of the method: as §1

CC(=O)Nc1nc2ccc(-c3cnc(C)c(NC(=O)OC4CCCCC4)c3)cc2s1 [PK68, cyclohexyl (5-(2-acetamidobenzo[d]thiazol-6-yl)-2-methylpyridin-3-yl)carbamate]
Activity% (ALK5/TGFBR1; 1 μM): 94.67% | activity at 1 µM (ALK5/TGFBR1): 95.1% | Activity% (BTK; 1 μM): 90.38% | activity at 1 µM (BTK): 91.2% | Activity% (CAMK2g; 1 μM): 105.45% | activity at 1 µM (CAMK2g): 107% | Activity% (CAMK4; 1 μM): 84.49% | activity at 1 µM (CAMK4): 84.8% | Activity% (CDK17/cyclin Y (PCTK2); 1 μM): 77.31% | activity at 1 µM (CDK17/cyclin Y (PCTK2)): 79% | Activity% (CK1g3; 1 μM): 87.02% | activity at 1 µM (CK1g3): 87.1% | Activity% (CK2a2; 1 μM): 100.37% | activity at 1 µM (CK2a2): 101% | Activity% (CLK2; 1 μM): 77.67% | activity at 1 µM (CLK2): 80.5% | Activity% (CLK4; 1 μM): 70.07% | activity at 1 µM (CLK4): 71% | Activity% (DAPK1; 1 μM): 87.16% | activity at 1 µM (DAPK1): 88.5% | Activity% (DMPK; 1 μM): 100.30% | activity at 1 µM (DMPK): 101% | Activity% (ERK7/MAPK15; 1 μM): 96.80% | activity at 1 µM (ERK7/MAPK15): 99.3% | Activity% (FLT1/VEGFR1; 1 μM): 100.00% | activity at 1 µM (FLT1/VEGFR1): 100% | Activity% (Haspin; 1 μM): 94.31% | activity at 1 µM (Haspin): 94.5% | Activity% (IRR/INSRR; 1 μM): 96.94% | activity at 1 µM (IRR/INSRR): 98% | Activity% (KSR2; 1 μM): 99.64% | activity at 1 µM (KSR2): 100% | Activity% (MINK/MINK1; 1 μM): 88.92% | activity at 1 µM (MINK/MINK1): 90.2% | Activity% (MYLK4; 1 μM): 89.75% | activity at 1 µM (MYLK4): 92.7% | Activity% (NEK11; 1 μM): 81.13% | activity at 1 µM (NEK11): 85.4% | Activity% (NLK; 1 μM): 98.89% | activity at 1 µM (NLK): 103% | Activity% (P38d/MAPK13; 1 μM): 95.45% | activity at 1 µM (P38d/MAPK13): 95.8% | Activity% (PAK3; 1 μM): 99.63% | activity at 1 µM (PAK3): 103% | Activity% (PKCg; 1 μM): 95.02% | activity at 1 µM (PKCg): 95.8% | Activity% (PKN1/PRK1; 1 μM): 96.02% | activity at 1 µM (PKN1/PRK1): 97.8% | Activity% (PLK3; 1 μM): 104.01% | activity at 1 µM (PLK3): 105% | Activity% (SGK3/SGKL; 1 μM): 99.59% | activity at 1 µM (SGK3/SGKL): 102% | Activity% (SIK1; 1 μM): 97.74% | activity at 1 µM (SIK1): 98.4% | Activity% (STK22D/TSSK1; 1 μM): 103.75% | activity at 1 µM (STK22D/TSSK1): 104% | Activity% (TAK1; 1 μM): 96.74% | activity at 1 µM (TAK1): 97.5% | Activity% (TGFBR2; 1 μM): 114.72% | activity at 1 µM (TGFBR2): 115% | Activity% (TTBK1; 1 μM): 107.17% | activity at 1 µM (TTBK1): 110% | Activity% (c-Src; 1 μM): 95.17% | activity at 1 µM (c-Src): 96.3% | Activity% (p70S6K/RPS6KB1; 1 μM): 101.85% | activity at 1 µM (p70S6K/RPS6KB1): 102%
